Some results are limits rather than exact numbers.

The results in this text go back to a melting point compilation (Tetko et al.; mined from patent text by program, amines drawn as free bases though some values may be those of a salt).

What is called melting point is the temperature, or range, at which the solid turns liquid.

`CON(C)C(=O)c1cc(-n2c(=O)cc(C(F)(F)F)n(C)c2=O)c(F)cc1Cl`: the melting point is 158 °C.
The figure for `CC(C)n1cc(C2CCC3(CC2)OCCO3)c2cc(C#N)ccc21` is 114 to 116 °C; for `CN(C)C=CC(=O)c1ccc(I)cc1` it is 117 to 118 °C; for `COc1ccc(C2=CC(C3CCN(c4ncnc5c4cnn5C)CC3)C(=O)C3CC=CCC23)cc1OC` (stereo not drawn) it is 193 to 194 °C.
`COc1ncccc1-c1ccc(Cl)c(OC2SCC(O)C(O)C2O)c1` (stereo not drawn) registered a melting point of 119 °C.
The compound `CCCCCCC1CC(=O)C2=C(C1)NC(=O)CC2` (stereo not drawn) returned a melting point of 142 to 144 °C.
`O=C1Nc2ccccc2C1CCCCN1CCN(c2ccc(Cl)cc2)CC1` (stereo not drawn) returned a melting point of 136 to 137 °C.
In turn, `Cc1oc2ccccc2c1OC(C)(C)C(N)=O` gave a melting point of 116 to 120 °C.
Regarding `C[C@H](CSC(=O)c1ccc(Cl)c(S(N)(=O)=O)c1)C(=O)O`, the melting point lay in the range of 152 to 153 °C.
For `N=C(N)NC(=O)c1cn([C@H](CO)CCc2ccccc2)cn1`, the melting point is 111 to 113 °C.
Compound `C=CCOc1cccc(C(=O)c2ccccc2C(=O)OC)c1` returned a melting point of 50 to 52 °C.
`CCCCCc1ccc(-c2ncc(C#N)cn2)cc1` showed a melting point of 96 to 96.2 °C.
With `CC(=O)N(C)c1cc2c(nc(C)n2C)c(O)c1CN(C)C`, the melting point was 181 to 184 °C.
The compound `CCOC(=O)c1ccc(OCc2ccc(F)cc2)cc1` showed a melting point of 60 to 62 °C.
For `N#Cc1ccc(-c2cnc(-c3ccc(C#N)cc3)nc2)cc1`, the melting point was in the range of 305 to 306 °C.
As for `COc1ccc2c3c(c(=O)oc2c1)CN(Cc1ccccc1)CC3`, the melting point fell in the range of 118 to 120 °C.
`N#CCCc1coc2ccc(Br)cc12` registered a melting point of 56 to 58 °C.
`COC(=O)C1CC(=O)Nc2ccccc2C1` (stereo not drawn) displayed a melting point of 114 to 115 °C.
For the compound `CC1CCN(c2ccc(N)cc2C(O)c2ccc(Cl)cc2)CC1` (stereo not drawn), the melting point was 89 °C.
Compound `Cc1oc(-c2ccccc2)nc1CCOc1ccc([N+](=O)[O-])cn1` gave a melting point of 110 to 112 °C.
In turn, `C=CCC1COC(CC)(CC(=O)OC)c2[nH]c3c(CC)cccc3c21` (stereo not drawn) gave a melting point of 92 to 93 °C.
The same measure for `COC(=O)c1ccc(-c2nc(Nc3cc(OC)c(OC)c(OC)c3)ncc2C#N)cc1`: 206 to 208 °C; for `COC(=O)COc1cccc2c(CNS(=O)(=O)CCCCCc3ccccc3)coc12`: 84.5 to 85.5 °C; for `CCc1nc(NCC(C)O)c2c(n1)c(C)nn2C` (stereo not drawn): 116 to 119 °C.
On to `CC#CC(C)(C)NC(=O)C(CC)Oc1cncc(C#N)c1` (stereo not drawn), for which the melting point fell in the range of 112 to 113 °C.
The figure for `C[C@@H](NC(=O)c1c[nH]c2ncc(-c3nn(C)c4cc(Cl)cc(F)c34)nc12)C(=O)N1CC(C#N)C1` is 267 to 268 °C; for `CCn1c(=O)c2nc(-c3ccc(/C=C/C(=O)O)cc3)[nH]c2n(CC)c1=O` it is more than 360 °C; for `Cc1ccc(C(C)N(O)C(N)=O)cc1` (stereo not drawn) it is 134 to 135 °C.
For `Cc1noc(-c2ccccc2)c1/C=C/C(=O)O`, the melting point fell in the range of 173 to 174 °C.
The compound `O=C1NC(=O)c2c(Sc3ccc([N+](=O)[O-])cc3)c(Sc3ccc([N+](=O)[O-])cc3)c(Sc3ccc([N+](=O)[O-])cc3)c(Sc3ccc([N+](=O)[O-])cc3)c21` returned a melting point of 297 to 301 °C.
The figure for `CCCC(=O)c1c[nH]c2cc(COC(=O)c3ccccc3)ccc2c1=O` is 228 to 231 °C; for `O=C(O)CC(NS(=O)(=O)c1c(Cl)cc(Cl)cc1Cl)c1ccccc1` (stereo not drawn) it is 218 to 219 °C.
As for `CN(C)Cc1ccccc1C(O)c1ccsc1` (stereo not drawn), the melting point was in the range of 77 to 78 °C.
`N#Cc1c(N)nc2ccccc2c1Nc1cccs1` displayed a melting point of 208 to 209 °C.
The compound `O=C(O)C(=O)Cc1ccc(-c2ccccc2)cc1` gave a melting point of 215 to 218 °C.
In the case of `COc1ccc2nc(NC(=O)C(CC3CCCC3)c3ccc(S(=O)(=O)NCc4cccs4)cc3)sc2n1` (stereo not drawn), the melting point was 263 to 268 °C.
Compound `COCCOc1cc(OCCN2CCCC2)c2c(=O)[nH]c(-c3cc(C)nc(C)c3)nc2c1` returned a melting point of 60.4 to 62.3 °C.
`FC1(Cl)Oc2cc3nc(C(Cl)(Cl)Cl)[nH]c3cc2OC1(F)Cl` (stereo not drawn) displayed a melting point of more than 230 °C.
Turning to `CCCOc1ccc(CN2CCOCC2)cc1-c1nc2c(CCC)nn(C)c2c(=O)[nH]1`, the melting point lay within 106 to 107 °C.
The compound `CC(C)(CO)c1cc(OS(C)(=O)=O)ccc1O` gave a melting point of 122 to 124 °C.
`Cc1ncsc1C(O)c1cccc(N)c1` (stereo not drawn) returned a melting point of 137 to 138 °C.
Regarding `CC(=O)SC1CC(=O)N1C(Cl)C(=O)OCc1ccc([N+](=O)[O-])cc1` (stereo not drawn), the melting point was in the range of 72 to 73 °C.
Compound `O=C1CCC(N2Cc3c(OCc4ccc(C(F)(F)F)cc4)cccc3C2=O)C(=O)N1` (stereo not drawn) returned a melting point of 241 to 243 °C.
As for `COCCc1nc2c(N)nc3ccccc3c2n1CCOCCN(C)C(=O)N1CCOCC1`, the melting point amounted to 122 °C.
Compound `N#Cc1ccc(N2C(=O)NC3(CCCC3)C2=O)cc1C(F)(F)F` displayed a melting point of 184 to 185 °C.
In the case of `O=C1OC(=O)c2c(Br)c(Sc3ccccc3)c(Sc3ccccc3)c(Br)c21`, the melting point was in the range of 183 to 184 °C.
`CSc1ccc(CN(C)CCOc2ccc(NC(=O)c3cccc4c(=O)c5ccccc5[nH]c34)cc2)cc1` had a melting point of 150 °C.
For the compound `CN1Cc2c(-c3noc(CCl)n3)ncn2-c2cccc(Br)c2C1=O`, the melting point lay in the range of 242 to 244 °C.
`Cc1nc(Cl)c2nnn(-c3ccc(C(C)C)cc3Br)c2n1` had a melting point of 72 to 74 °C.
The same measure for `CCOC(=O)CN1CC(=O)N(C)c2ccc(N)cc2C1=O`: 118 to 119 °C; for `Cc1cc2c(cc1Cl)nc(Br)n2[C@@H]1OC[C@@H](O)[C@@H](O)[C@H]1O`: 150 °C; for `C[C@]12CC[C@@H]3c4ccc(OCC(=O)O)cc4CC[C@H]3[C@@H]1CCC2=O`: 205 to 208 °C.
As to `Cn1ncnc1COc1nn2c(-c3ccccc3F)nnc2cc1C1(F)CCC1`, the melting point is 154 to 162 °C.
The figure for `CCNC(=O)n1nc(Oc2ncc(C(F)(F)F)cc2Cl)c(Br)c1C` is 123 to 125 °C.
Turning to `C[C@H](Cn1ncnn1)n1cnc2cc3c(=O)n([C@H](C)Cn4cnnn4)nnc3cc2c1=O`, the melting point is 168 to 170 °C.
The figure for `CC(=O)Nc1ccc(Cc2cc(C)c(C(=O)c3ccc(Cl)cc3)n2C)nc1` is 194 to 195 °C; for `CC(=O)c1ccc(S(=O)(=O)n2c(CCC(=O)O)cc3cc(Cl)ccc32)cc1` it is 159 to 161 °C; for `CCOc1cccc(-c2cc(F)c(NC(=O)c3ccccc3CO)c(F)c2)c1` it is 94.8 to 99.1 °C.
In the case of `COc1ccc(Cn2c(=O)[nH]c3ccc(Cl)cc3c2=O)cc1`, the melting point is 252 to 253 °C.
On to `Cc1csc2nc(S(=O)(=O)Nc3ccccc3Cl)nn12`, for which the melting point was 172 to 174 °C.
As to `CC(=O)OC1(C)CCC2C3C(C#N)CC4=CC(=O)CCC4(C)C3CCC21C` (stereo not drawn), the melting point was in the range of 211 to 216 °C.
`COC(=O)c1cc(-c2ccc(S(C)(=O)=O)cc2)n(-c2ccc(Cl)cc2)n1` displayed a melting point of 169 to 171 °C.
For the compound `COc1ccc(C(=O)Nc2ccccc2)cc1NCc1cccc2ccccc12`, the melting point is 172 to 174 °C.
Compound `CC(C)(C)OC(=O)N[C@@H]1CN[C@H]2CCCO[C@H]21` (relative stereo) returned a melting point of 110 to 111 °C.
For the compound `CC(=O)NC1CC(C)(C)NC(C)(C)C1`, the melting point lay in the range of 100 to 102 °C.
The figure for `COc1ccc(CCNC(=O)c2ccc3n2Cc2ccccc2N(C(=O)c2ccc(-c4ccccc4C)c(C)c2)C3)cc1` is 170 to 172 °C; for `CC(C)(C)OC(=O)NC1CCCCCC=CC2CC2(C(=O)NS(=O)(=O)C2CC2)NC(=O)C2CC(OC(=O)c3ccc4ccccc4c3)CN2C1=O` (stereo not drawn) it is 156 to 158 °C; for `CCC1(CC)OC(=O)Nc2ccc(Br)cc21` it is 150 to 152 °C.
Regarding `CC(C)(C)NC(=O)C(NC(C)(C)C)=C1CCCC1`, the melting point fell in the range of 80 to 83 °C.
The compound `O=[N+]([O-])c1cc([N+](=O)[O-])c(Nc2c(Br)cc(Cl)c3ccccc23)c(C(F)(F)F)c1` gave a melting point of 207 to 209 °C.
The figure for `COCOc1cc(C=O)ccc1OCc1nc(-c2ccco2)oc1C` is 102 to 103 °C.
Regarding `CCCCCCCCCCCCCCCCO[C@@H]1CCCO[C@H]1COCc1ccccc1` (relative stereo), the melting point is 28.5 to 29.5 °C.
Regarding `CCC(C)(CCc1ccccc1)NC(=O)n1nc(C)n(N)c1=O` (stereo not drawn), the melting point stood at 78 °C.
`NC1=NCC(COc2cccc(C(F)(F)F)c2)O1` (stereo not drawn) registered a melting point of 10 °C.
The same measure for `O=C(NCC(=O)c1ccco1)c1ccccc1`: 132 to 133 °C; for `COc1ccc(N)cc1C12CC3CC(CC(C3)C1)C2`: 140 to 141 °C; for `NC(=O)N(O)Cc1ccc(Br)cc1`: 157 to 159 °C.
Compound `CCC1(CCCCN2CCc3sccc3C2)C(=O)Nc2cc(F)c(Cl)cc21` (stereo not drawn) returned a melting point of 155 to 157 °C.
On to `Cc1cc(Oc2ccc(C(F)(F)F)cc2[N+](=O)[O-])nn1C(=O)NC(C)(C)C`, for which the melting point fell in the range of 104 to 106 °C.
On to `CC(=O)O[C@H]1C[C@@H](n2cnc3c(=O)[nH]cnc32)[C@H](O)[C@@H]1O` (racemic), for which the melting point was in the range of 240 to 242 °C.
`O=c1cc(-c2ccncc2)nc2n1CCN2CCCc1c[nH]c2ccccc12` had a melting point of 218 to 220 °C.
Take `Fc1ccc(C(CCCN2CCC(c3nn(-c4ccccc4)c4cc(F)ccc34)CC2)c2ccc(F)cc2)cc1`: the melting point lay within 113 to 115 °C.
The figure for `CS(=O)(=O)c1ccc(-c2cc(F)c(F)cc2-c2ccc(F)cc2)cc1` is 148 °C.
Consider `COC(=O)[C@H](Cc1ccccc1)NC(=O)CCC#N`, for which the melting point is 71 to 72 °C.
For `COCc1c(CO)ncc2[nH]c3cccc(Cc4ccc(Cl)cc4)c3c12`, the melting point was in the range of 220 to 222 °C.
Compound `O=c1[nH]ncc2cc(/C=C\c3ccc(O)cc3)ccc12` showed a melting point of 210 °C.
The same measure for `O=C(O)CCCCCCC1(CCCCCCC(=O)O)C(=O)NC(=O)N1CCC(O)C1CCCCC1` (stereo not drawn): 116 to 118 °C; for `COc1ccc(C2(c3ccc(N(C)C)cc3)OC(=O)c3cc(N(C)C)ccc32)c(OC)c1` (stereo not drawn): 192 to 194 °C.
